These results are taken from publication PMC9065678, “BI 1015550 is a PDE4B Inhibitor and a Clinical Drug Candidate for the Oral Treatment of Idiopathic Pulmonary Fibrosis” (Frontiers in Pharmacology, 2022).

Broadly, the IC50 is the point on the concentration scale where inhibition reaches its midpoint.

In one data set the target is T1, PDE7A (Homo sapiens, UniProt Q13946).
T1 construct: made in house; host or cells: SF9 insect cells (baculovirus, Bac-To-Bac, pFastbac)
The data set is described as follows: Recombinant PDE activity, scintillation proximity assay: PDE7A. In kind it is biochemical. Particulars: calculated IC50. The source says: (§1) For the preparation of human recombinant PDEs of interest, the Bac-To-Bac baculoviral expression system from Invitrogen (Carlsbad, CA, United States) was used according to the instruction manual. In short, the full-length open reading frames of PDE1C (National Center for Biotechnology Information Gene-Ref-Seq identifier NG_051183), PDE3A (NG_030033), PDE4A (NG_029594, AA 156–886), PDE4C (NG_029629), PDE7A (NG_029614), and PDE9A (NG_047067) were cloned into the plasmid vector pFastbac. For PDE4B and PDE4D, active site fragments were used (PDE4B NG_029038: AA 152–484, PDE4D NG_027957, AA 79–438). The plasmids were transformed into DH10Bac bacteria, SF9 insect cells were transfected with the bacmid DNA, and the resulting baculoviruses were stored and used for further rounds of infections. […] The protein content was measured and an equal volume of 87% (v/v) glycerol was added prior to freezing at −20°C. […] The reaction was stopped by addition of 50 µL of yttrium silicate scintillation proximity assay beads (17.8 mg/mL, 18 mM zinc sulfate in H2O) and the amount of produced [^3H]AMP/[^3H]GMP associated was determined using a Wallac Microbeta scintillation counter. […]

Another data set has as its target T2, PDE3A (Homo sapiens, UniProt Q14432).
T2 construct: made in house; host or cells: SF9 insect cells (baculovirus, Bac-To-Bac, pFastbac)
As to the kind of experiment: Recombinant PDE activity, scintillation proximity assay: PDE3A. In kind it is biochemical. The conditions noted are these: calculated IC50.
From the text: as §1

The subject of data set [1] is phytohemagglutinin P-induced IL-2 release. The data set is described as follows: Phytohemagglutinin P-induced IL-2 release in human PBMCs. In kind it is cell-based. Particulars: 10 µg/mL PHA-P for 20 h. The method, then: Blood was donated by internal donors at the Center for Occupational Health at Boehringer Ingelheim in Biberach an der Riss, Germany; the donors provided signed informed consent that allows use for scientific purposes. All research was performed in accordance with the principles stated in the Declaration of Helsinki. Ethical approval was provided by the Federal State Medical Association of Baden-Württemberg, reference no. F-2016–121. For preparation of peripheral blood mononuclear cells (PBMCs), 200 mL freshly drawn human blood from healthy donors was mixed with 50 mL acid-citrate-dextrose solution (38 mmol/L citric acid, 75 mmol/L tri-sodium citrate and 121 mmol/L glucose) and 50 mL Hanks buffered saline solution (Thermo Fisher Scientific, Carlsbad, CA, United States), overlaid on Ficoll and centrifuged for 30 min at 300 x g. PBMCs were diluted in RPMI-1640 medium (Thermo Fisher Scientific) containing 6% (v/v) autologous plasma to a concentration of 5 × 10^6 cells/mL. […] Supernatants were taken and cytokines measured by enzyme-linked immunosorbent assay (ELISA; Becton Dickinson, Franklin Lakes, NJ, United States).

Another data set has as its system Suncus murinus. As to the kind of experiment: Determination of emesis in male Suncus murinus. Format: in vivo. The method, then:
All animals (50–55 g) were dosed orally by gavage immediately before transfer to whole-body plethysmography boxes. The volume of application was set to 10 mL/kg body weight. For assessment of the emetic events, animals were placed in the whole-body plethysmography boxes without any access to feed or water for 3 h. The whole-body plethysmography system used to detect emetic events consisted of five major components: 1) plethysmography boxes for mice (Buxco®, PLY 3211-F, Data Sciences International, New Brighton, MN, United States), 2) a pressure transducer with an amplifier, 3) a bias flow regulator, 4) a PC-based system to receive and process the amplified signals, and 5) a PC-based data acquisition system (NOTOCORD-hem™, Instem, Stone, United Kingdom) to process signals, as well as in-house-developed software to detect and identify changes in breathing pattern. Retching and vomiting induced characteristic changes in the breathing pattern of animals and these were recorded by whole-body plethysmography and translated for NOTOCORD recording. A number of preset definitions (computer-based criteria) characteristic for emetic events were determined. Peaks that met the set internal computer-based criteria and exceeded the threshold of more than 600 mV were labeled as emetic events by the system on a standard basis.

T1 sequence (Q13946 whole entry): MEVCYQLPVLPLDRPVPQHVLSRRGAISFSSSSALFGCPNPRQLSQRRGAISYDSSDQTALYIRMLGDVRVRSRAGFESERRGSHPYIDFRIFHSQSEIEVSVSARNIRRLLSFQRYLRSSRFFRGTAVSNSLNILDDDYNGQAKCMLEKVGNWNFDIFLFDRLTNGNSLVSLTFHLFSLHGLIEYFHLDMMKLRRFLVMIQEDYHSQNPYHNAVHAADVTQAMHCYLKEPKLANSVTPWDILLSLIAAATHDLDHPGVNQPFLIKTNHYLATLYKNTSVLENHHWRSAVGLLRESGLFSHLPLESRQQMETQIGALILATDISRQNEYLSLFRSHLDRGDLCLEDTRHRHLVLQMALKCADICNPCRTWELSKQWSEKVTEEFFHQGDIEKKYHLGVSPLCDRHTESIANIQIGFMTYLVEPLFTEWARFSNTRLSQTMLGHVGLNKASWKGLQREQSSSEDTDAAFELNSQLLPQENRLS
T2 sequence (Q14432 whole entry): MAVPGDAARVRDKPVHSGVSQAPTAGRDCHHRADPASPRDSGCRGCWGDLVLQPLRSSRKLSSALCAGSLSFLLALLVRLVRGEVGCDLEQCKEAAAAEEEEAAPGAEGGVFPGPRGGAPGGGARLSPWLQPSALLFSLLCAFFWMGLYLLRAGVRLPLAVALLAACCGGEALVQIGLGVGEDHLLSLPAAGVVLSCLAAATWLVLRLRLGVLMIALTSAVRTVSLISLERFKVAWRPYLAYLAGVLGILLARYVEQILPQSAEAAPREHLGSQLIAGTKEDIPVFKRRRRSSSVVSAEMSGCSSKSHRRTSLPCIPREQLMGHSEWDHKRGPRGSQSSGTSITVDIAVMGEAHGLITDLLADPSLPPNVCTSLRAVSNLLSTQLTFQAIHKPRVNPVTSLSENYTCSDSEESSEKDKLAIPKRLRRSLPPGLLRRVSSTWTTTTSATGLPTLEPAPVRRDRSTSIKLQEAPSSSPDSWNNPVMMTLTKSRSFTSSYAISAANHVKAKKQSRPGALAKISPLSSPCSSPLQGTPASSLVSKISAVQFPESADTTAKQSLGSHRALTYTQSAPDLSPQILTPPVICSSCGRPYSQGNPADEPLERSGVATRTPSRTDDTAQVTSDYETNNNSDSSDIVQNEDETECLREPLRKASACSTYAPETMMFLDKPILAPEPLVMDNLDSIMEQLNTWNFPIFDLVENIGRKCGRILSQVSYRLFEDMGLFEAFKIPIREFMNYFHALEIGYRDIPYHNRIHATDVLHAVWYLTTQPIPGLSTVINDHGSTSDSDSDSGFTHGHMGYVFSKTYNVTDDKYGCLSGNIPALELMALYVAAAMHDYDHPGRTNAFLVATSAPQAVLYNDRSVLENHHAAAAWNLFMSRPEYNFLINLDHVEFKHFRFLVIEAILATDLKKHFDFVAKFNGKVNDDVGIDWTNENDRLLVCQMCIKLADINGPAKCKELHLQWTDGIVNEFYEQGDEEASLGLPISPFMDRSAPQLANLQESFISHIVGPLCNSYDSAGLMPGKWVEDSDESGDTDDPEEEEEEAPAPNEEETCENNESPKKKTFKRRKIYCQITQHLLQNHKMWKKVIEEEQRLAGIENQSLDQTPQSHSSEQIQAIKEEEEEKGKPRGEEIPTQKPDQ

In the case of `[O-][S+]1CCc2nc(N3CCC(c4ncc(Cl)cn4)CC3)nc(NC3(CO)CCC3)c21` (stereo not shown) [BI 1015550], the IC50 on PDE7A is 14 µM; on PDE3A it was 120 µM; in data set [1], 0.009 µM. The Animals showing emesis in the data set with Suncus murinus (0.5 mg/kg oral, 3 h observation, data not shown) is given as 3 of 24; with Suncus murinus (10 × ED50 oral (BI 1015550 6 mg/kg, roflumilast 10 mg/kg)) it was 5 out of 24. In addition, the “Mean emetic events per animal” value in the data set with Suncus murinus (0.5 mg/kg oral, data not shown) was 0.1. For the same compound, the “% of vomiting animals, emesis at 10 × ED50” value with Suncus murinus (oral (BI 1015550 6 mg/kg, roflumilast 10 mg/kg), 24 animals) amounted to 21%.
